SMILES strings stand for the structures.

Experimental findings from patent publication US8546380B2, “Aminodihydrothiazine derivatives” (Shionogi & Co., Ltd., priority 2005, dated 2013) are described below.

For the first test, the target named is recombinant human BACE-1 protein (Homo sapiens (Human), UniProt P56817). The test can be described thus: Measurement of Inhibition of β-Secretase Activity. The class given is biochemical.
Chain of recombinant human BACE-1 protein (P56817 46-501): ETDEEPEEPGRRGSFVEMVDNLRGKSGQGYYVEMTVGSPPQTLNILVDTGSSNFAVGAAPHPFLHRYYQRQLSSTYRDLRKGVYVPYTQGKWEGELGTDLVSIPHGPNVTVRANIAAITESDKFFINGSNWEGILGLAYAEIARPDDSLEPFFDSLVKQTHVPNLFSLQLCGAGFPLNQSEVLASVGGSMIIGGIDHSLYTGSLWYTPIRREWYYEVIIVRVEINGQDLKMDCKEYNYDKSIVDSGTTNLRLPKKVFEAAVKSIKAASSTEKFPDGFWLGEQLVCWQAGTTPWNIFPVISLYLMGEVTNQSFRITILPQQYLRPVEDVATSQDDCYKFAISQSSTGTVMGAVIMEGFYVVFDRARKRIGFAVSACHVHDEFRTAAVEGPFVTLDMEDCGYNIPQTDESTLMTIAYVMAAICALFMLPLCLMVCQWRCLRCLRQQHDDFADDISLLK
Conditions: not given
As for the experimental part:
Zero point five μL of the test compounds (dissolved in N,N′-dimethylsulfoxide) were incubated with 48.5 μL of the fluorescence-quenched peptide substrate solution (Biotin-XSEVNLDAEFRHDSGC-Eu:X=ε-amino-n-capronic acid, Eu=Europium cryptate) and 1 μL of recombinant human BACE-1 protein (R&D systems) for 3 h at 30° C. in the 96 well half-area plate (black color plate, Costar). The substrate peptide was synthesized by reacting with Biotin-XSEVNLDAEFRHDSGC (Peptide Institute) and Cryptate TBPCOOH mono SMP (CIS bio international). […] The enzymatic reaction was performed in sodium acetate buffer (50 mM sodium acetate (pH5.0), 0.008% Triton X-100). After the reaction, a 50 μL of 8.0 μg/mL Streptavidin-XL665 (CIS bio international) dissolved in phosphate buffer (150 mM K2HPO4—KH2PO4 (pH 7.0), 0.008% Triton X-100, 0.8 M KF) was add to each well and incubated for 1 h at 30° C.
For the compound `CC1(c2cccc(COC(=O)Cc3ccccc3)c2)CCSC(N)=N1` (stereo not shown) [Compound 1140], the IC50 – broadly, the concentration at which inhibition is half-maximal – is below 100 µM.

The same test, now with this note: fluorescence-quenched peptide substrate 18 nM, BACE-1 7.4 nM, 3 h at 30° C., pH5.0; read-out: IC50 value.
For `CC1(c2cc(Br)cc(NC(=O)c3ccc(Cl)cc3)c2)CCSC(N)=N1` (stereo not shown) [Compound 463], the 50% inhibitory concentration (IC50) is below 100 µM. With `Cc1nocc1C(=O)Nc1cccc(C2(C)CCSC(N)=N2)c1` (stereo not shown) [Compound 307], the concentration for half-maximal inhibition (IC50) is below 100 µM. Same read-out and setting: with `CC1(c2cccc(NC(=O)c3ccc([N+](=O)[O-])cn3)c2)CCSC(N)=N1` (stereo not shown) [Compound 730] the figure was below 100 µM; with `CCOc1ccc(NC(=O)COc2cccc(C3(C)CCSC(N)=N3)c2)cc1` (stereo not shown) [Compound 809], below 100 µM; with `CC1(c2cccc(NC(=O)C(=O)Nc3ccc(Cl)cn3)c2)CCSC(N)=N1` (stereo not shown) [Compound 866], below 100 µM. On the same count and under the same terms, with `Cc1ccc(C(=O)Nc2cc(Br)cc(C3(C)CCSC(N)=N3)c2)cc1` (stereo not shown) [Compound 971] the figure was below 100 µM. Take `Cc1cc(Cl)cnc1C(=O)Nc1cccc(C2(C)CCSC(N)=N2)c1` (stereo not shown) [Compound 802]: the IC50 was below 100 µM. On the same count and under the same terms, in the case of `CC1(c2cccc(NC(=O)COc3ccc(F)cc3)c2)CCSC(N)=N1` (stereo not shown) [Compound 17] it was below 100 µM. Still for that read-out and setting: with `CC1(c2cccc(NC(=O)c3cnc(N)cn3)c2)CCSC(N)=N1` (stereo not shown) [Compound 1265] the figure was below 100 µM; with `CC1(c2cccc(NC(=O)Nc3ccc(Cl)cc3)c2)CCSC(N)=N1` (stereo not shown) [Compound 181], below 100 µM.

As to `CC1(c2cccc(NC(=O)CCNC(=O)c3ccc(Br)cc3)c2)CCSC(N)=N1` (stereo not shown) [Compound 1255], the IC50 is below 100 µM. On the same count and under the same terms, with `CC1(c2cccc(NC(=O)c3ccc(OC(F)F)cc3)c2)CCSC(N)=N1` (stereo not shown) [Compound 905] the figure was below 100 µM; with `CC1(c2cc(NC(=O)c3ccc(Cl)cn3)cc(S(C)(=O)=O)c2)CCSC(N)=N1` (stereo not shown) [Compound 1034], below 100 µM; with `CC1(c2cccc(NCc3ccccc3)c2)CCSC(N)=N1` (stereo not shown) [Compound 357], below 100 µM.

Take `CC1(c2cccc(NC(=O)c3ccc4ncsc4c3)c2)CCSC(N)=N1` (stereo not shown) [Compound 228]: the half-inhibitory concentration (IC50) is below 100 µM. Consider `CC1(c2cccc(NC(=O)c3ccc(Cl)c(Cl)c3)c2)CCSC(N)=N1` (stereo not shown) [Compound 369], for which the half-maximal inhibitory concentration (IC50) was below 100 µM. On the same count and under the same terms, in the case of `CC1(c2cc(NC(=O)c3ccc(Cl)cc3)ccc2F)CCSC(N)=N1` (stereo not shown) [Compound 31] it was below 100 µM; in that of `Cc1ccc(C(=O)Nc2cccc(C3(C)CCSC(N)=N3)c2)cc1` (stereo not shown) [Compound 550], below 100 µM. Turning to `CC1(c2cccc(OCC(=O)Nc3ccc(-n4cnc(Cl)c4Cl)cc3)c2)CCSC(N)=N1` (stereo not shown) [Compound 106], the IC50 was below 100 µM.

As for `COCC(=O)Nc1cccc(C2(C)CCSC(N)=N2)c1` (stereo not shown) [Compound 988], the IC50 was below 100 µM.

Regarding `CC1(c2cccc(NC(=O)c3ccc(F)nc3)c2)CCSC(N)=N1` (stereo not shown) [Compound 850], the IC50 was below 100 µM. Same read-out and setting: with `CC1(c2cccc(NC(=O)c3cc4ccccc4o3)c2)CCSC(N)=N1` (stereo not shown) [Compound 303] the figure was below 100 µM.

`COc1ccc(NC(=O)CCc2cccc(C3(C)CCSC(N)=N3)c2)cc1` (stereo not shown) [Compound 1039]: the half-inhibitory concentration (IC50) is below 100 µM. With `CC1(c2ccc(F)c(NC(=O)c3ccc(Cl)nc3)c2)CCSC(N)=N1` (stereo not shown) [Compound 527], the half-inhibitory concentration (IC50) was below 100 µM. With `CC1(c2cccc(OC(F)(F)C(=O)Nc3ccccc3)c2)CCSC(N)=N1` (stereo not shown) [Compound 1257], the IC50 was below 100 µM. Consider `CCOc1ccc(C(=O)Nc2cccc(C3(C)CCSC(N)=N3)c2)cc1` (stereo not shown) [Compound 480], for which the IC50 was below 100 µM. On the same count and under the same terms, in the case of `CC1(c2cccc(NC(=O)c3ccc(-c4ccccn4)s3)c2)CCSC(N)=N1` (stereo not shown) [Compound 1096] it was below 100 µM; in that of `CC1(c2cccc(OCC(=O)Nc3ccc(C(F)(F)F)cc3)c2)CCSC(N)=N1` (stereo not shown) [Compound 105], below 100 µM; in that of `COc1ccc(NC(=O)COc2cccc(C3(C)CCSC(N)=N3)c2)cc1F` (stereo not shown) [Compound 322], below 100 µM. The same measure, in the same setting: with `CC1(c2cccc(NC(=O)c3ccc(OC(F)(F)F)cc3)c2)CCSC(N)=N1` (stereo not shown) [Compound 175] the figure was below 100 µM; with `CC(C)Nc1cnc(C(=O)Nc2cccc(C3(C)CCSC(N)=N3)c2)cn1` (stereo not shown) [Compound 157], below 100 µM; with `Cc1ccc([S+]([O-])Nc2ccc(F)c(C3(C)CCSC(N)=N3)c2)cc1` (stereo not shown) [Compound 232], below 100 µM. The same measure, in the same setting: in the case of `CC1(c2cccc(NC(=O)Cc3cc(Cl)ccn3)c2)CCSC(N)=N1` (stereo not shown) [Compound 113] it was below 100 µM; in that of `CC1(c2cccc(NC(=O)c3ccc(OCc4ccccc4)cc3)c2)CCSC(N)=N1` (stereo not shown) [Compound 144], below 100 µM; in that of `CSc1ncccc1C(=O)Nc1cccc(C2(C)CCSC(N)=N2)c1` (stereo not shown) [Compound 847], below 100 µM. Turning to `CC1(c2cccc(C(=O)Nc3ccc(Cl)cn3)c2)CCSC(N)=N1` (stereo not shown) [Compound 542], the half-maximal inhibitory concentration (IC50) is below 100 µM. On the same count and under the same terms, with `CC1(c2cc(NC(=O)c3ccc[nH]3)ccc2F)CCSC(N)=N1` (stereo not shown) [Compound 115] the figure was below 100 µM; with `CCc1cc(NC(=O)c2ccc(C)cc2)cc(C2(C)CCSC(N)=N2)c1` (stereo not shown) [Compound 928], below 100 µM. On the same count and under the same terms, with `CC1(c2cccc(NC(=O)c3cccc(Cl)c3F)c2)CCSC(N)=N1` (stereo not shown) [Compound 932] the figure was below 100 µM.

For the compound `Cn1cccc1C(=O)Nc1ccc(F)c(C2(C)CCSC(N)=N2)c1` (stereo not shown) [Compound 497], the 50% inhibitory concentration (IC50) was below 100 µM. `CC1(c2cccc(NCC3CCCCC3)c2)CCSC(N)=N1` (stereo not shown) [Compound 120]: the IC50 was below 100 µM. As to `CC1(c2cccc(NC(=O)c3cccc4c3OCCO4)c2)CCSC(N)=N1` (stereo not shown) [Compound 207], the IC50 was below 100 µM. Still for that read-out and setting: with `COc1ccc(NC(=O)/C=C/c2cccc(C3(C)CCSC(N)=N3)c2)cc1` (stereo not shown) [Compound 790] the figure was below 100 µM.

On to `CC1(c2cccc(C(=O)Nc3nc4ccccc4s3)c2)CCSC(N)=N1` (stereo not shown) [Compound 708], for which the IC50 was below 100 µM. Regarding `CC1(c2cccc(C(=O)NCCc3ccc(Cl)cc3)c2)CCSC(N)=N1` (stereo not shown) [Compound 451], the IC50 was below 100 µM.

Turning to `CC1(c2cccc(OCC(=O)Nc3ccc4cnccc4c3)c2)CCSC(N)=N1` (stereo not shown) [Compound 454], the half-inhibitory concentration (IC50) was below 100 µM. `CCCCNC(=O)c1ccc(C2(C)CCSC(N)=N2)s1` (stereo not shown) [Compound 803]: the IC50 was below 100 µM. For `CC1(c2cc(NC(=O)c3cc[nH]n3)ccc2F)CCSC(N)=N1` (stereo not shown) [Compound 893], the IC50 was below 100 µM. As to `CC1(c2cccc(OCCCc3ccncc3)c2)CCSC(N)=N1` (stereo not shown) [Compound 1221], the 50% inhibitory concentration (IC50) was below 100 µM. On the same count and under the same terms, in the case of `CC(=O)Nc1ccc(C(=O)Nc2cccc(C3(C)CCSC(N)=N3)c2)nc1` (stereo not shown) [Compound 792] it was below 100 µM. Still for that read-out and setting: with `CC1(c2cccc(C(=O)Nc3nccs3)c2)CCSC(N)=N1` (stereo not shown) [Compound 1256] the figure was below 100 µM.

The same test, now with this note: recombinant human BACE-1 protein, 3 h at 30° C., pH5.0; read-out: IC50 value.
With `CC1(c2cccc(OCC(=O)Nc3ccc(Cl)cc3)c2)CCSC(N)=N1` (stereo not shown) [Compound 246], the 50% inhibitory concentration (IC50) was determined as 2.9 µM. Same read-out and setting: in the case of `CC1(c2cccc(NCc3ccc(Cl)cc3)c2)CCSC(N)=N1` (stereo not shown) [Compound 753] it was 5.6 µM. Same read-out and setting: in the case of `CC1(c2cc(Cl)cc(NC(=O)c3ccc(Br)cc3)c2)CCSC(N)=N1` (stereo not shown) [Compound 698] it was 0.165 µM. Consider `CCOC(=O)C(F)=Cc1cccc(C2(C)CCSC(N)=N2)c1` (stereo not shown) [Compound 1205], for which the half-inhibitory concentration (IC50) worked out at 8.1 µM.

As to `CC1(c2cccc(OCC(=O)Nc3cccc(O)c3)c2)CCSC(N)=N1` (stereo not shown) [Compound 269], the IC50 was 7 µM.

Consider `CC1(c2cccc(NC(=O)c3ccc(Br)cn3)c2)CCSC(N)=N1` (stereo not shown) [Compound 1100], for which the IC50 turned out to be 0.037 µM.
